Holding throughout (assay): inhibition of tumour cell growth, NCI panel, 48 h
Test [1] concerns 786-0 renal.
Test [2] concerns EKVX NSCLC.
The subject of test [3] is HT29 colon.
Test [4] deals with K-562 leukemia.
Test [5] concerns MDA-MB-435.
The subject of test [6] is NCI-H460 lung.
For test [7], the system named is NCI-H522 lung.
In test [8] the test system is NCI/ADR-RES ovarian.
In test [9] the test system is OVCAR-3 ovarian.
In test [10] the test system is OVCAR-8 ovarian.
Test [11] relates to PC-3 prostate.
The test system of test [12] is RPMI-8226 leukemia.
For test [13], the system named is RXF 393 renal.
The subject of test [14] is SF-268 CNS.
Test [15] concerns SF-539 CNS.
Test [16] has as its system SK-MEL-5 melanoma.
Test [17] deals with SN12C renal.
The subject of test [18] is SNB-19 CNS.
Test [19] has as its system TK-10 renal.
Test [20] relates to UACC-62 melanoma.

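Growth conditions: 96-well plates. Treatment: test compound, 48 hours, 5 concentrations. Analysis: linear interpolation between bracketing concentrations; unreached endpoints set to highest concentration. TGI marks complete inhibition of growth.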

As for `C=CC(=C)CCC(Br)C(C)(C)Br` (stereo not given), the TGI in test [1], in test [2], in test [3], in test [4], in test [5] and in [6] was over 100 µM in each case. Moreover, the TGI is 30.6 µM in test [7]; over 100 µM in test [8]; over 100 µM in test [9]; over 100 µM in [10]; over 100 µM in test [11]; over 100 µM in test [12]. Besides, the TGI in [13], in [14], in [15], in test [16], in test [17] and in test [18] was over 100 µM each time. Further, the TGI in [19] and in [20] was over 100 µM each time.

For `COc1ccc(C/C=C(\C)CCO)cc1`, the TGI in test [1], in test [2], in [3], in test [4], in test [5] and in [6] was over 100 µM in each case. In addition, the TGI in [7] is over 100 µM; in [8] it was over 100 µM; in test [9] it was over 100 µM; in test [10], over 100 µM; in [11] it was over 100 µM; in test [12], 89.8 µM. Besides, the TGI in test [13], in test [14], in [15], in [16], in [17] and in test [18] was over 100 µM throughout. Also, the TGI in [19] and in test [20] was over 100 µM throughout.

For the molecule `CC(C)(C)OC(=O)NCC(c1c[nH]c2cc(Br)ccc12)c1c[nH]c2cc(Br)ccc12`, the TGI in test [1] is 33.5 µM; in [2], 32.8 µM; in test [3] it was 33.5 µM; in [4] it was over 100 µM; in test [5] it was 31.9 µM; in test [6], 48.7 µM. Also, the TGI is 32.7 µM in test [7]; 35.9 µM in [8]; 29.1 µM in [9]; 36.5 µM in [10]; 31.1 µM in [11]; over 100 µM in [12]. Further, the TGI in [13] amounted to 32 µM; in [14], 31.7 µM; in [15], 38 µM; in test [16], 34.2 µM; in [17], 33.6 µM; in test [18], 46.2 µM. Also, the figures for the TGI in test [19] and in [20] were 35.9 µM and 30.1 µM, respectively.

Consider `CCN(CC)CCOCCOCC1(c2ccc(Cl)c(Cl)c2)CCCCC1`, for which the TGI in [1] turned out to be 9.07 µM; in test [2], 23 µM; in [3], 7.53 µM; in test [4], 12.7 µM; in test [5], 13.6 µM; in test [6], 13.3 µM. Further, the TGI in [7] is 22.1 µM; in test [8], 24.3 µM; in test [9], 22.3 µM; in test [10], 28.8 µM; in [11], 23.3 µM; in [12], 6.45 µM. The TGI in [13] stood at 17.6 µM; in [14] it was 25.3 µM; in [15] it was 24.8 µM; in test [16] it was 4.88 µM; in test [17] it was 24.9 µM; in test [18], 26.4 µM. The figures for the TGI in [19] and in [20] were 21.7 µM and 22.1 µM, respectively.

In the case of `Cc1ccc2c(ccc3ncc(CNc4ccc(NS(C)(=O)=O)cc4)c32)[nH]1`, the TGI in test [1] was 39.4 µM; in test [2], over 100 µM; in [3], 93.6 µM; in test [4], 46.3 µM; in [5], 31.5 µM; in [6], 35.4 µM. The TGI was 35.5 µM in test [7]; over 100 µM in [8]; 43.8 µM in [9]; 81.1 µM in [10]; 68.7 µM in [11]; 41.3 µM in test [12]. Besides, the TGI was 21.7 µM in test [13]; 52.5 µM in [14]; 50.5 µM in test [15]; 39.4 µM in [16]; 92.5 µM in test [17]; over 100 µM in test [18]. Further, the TGI in [19] is over 100 µM; in test [20], 34.2 µM.

Consider `Cc1cc(-c2nc3ccc(F)cc3s2)ccc1NC(=O)C(N)CCCCN` (stereo not given), for which the TGI in [1] stood at 8.76 µM; in [2] it was 26.5 µM; in test [3] it was 13.1 µM; in test [4], 8.2 µM; in test [5], 5.34 µM; in test [6], 5.64 µM. The TGI in [7] was found to be 17.3 µM; in [8], 34.1 µM; in test [9], 22.4 µM; in test [10], 22.3 µM; in test [11], 22.7 µM; in [12] it was 12.5 µM. The TGI was determined as 25.3 µM in test [13]; 19 µM in [14]; 7.75 µM in test [15]; 20.4 µM in [16]; 21.3 µM in [17]; 25 µM in test [18]. Moreover, the figures for the TGI in test [19] and in [20] were 14.5 µM and 24.6 µM, respectively.

In the case of `CC1(C)C(CBr)=[N+]([O-])C(C)(C)N1O`, the TGI in test [1] was 9.78 µM; in test [2], over 8.02 µM; in test [3] it was over 10 µM; in test [4], over 8.04 µM; in test [5], over 8.08 µM; in test [6] it was over 10 µM. Further, the TGI in test [7] is 3.22 µM; in [8], over 10 µM; in test [9] it was over 6.74 µM; in test [10], over 10 µM; in [11], over 10 µM; in test [12], over 8.63 µM. Moreover, the TGI in [13] is 8.15 µM; in test [14] it was over 10 µM; in [15] it was over 7.83 µM; in [16], over 10 µM; in test [17] it was 9.93 µM; in test [18] it was over 10 µM. Also, the TGI in test [19] and in test [20] was over 10 µM each time.

For `CCOC(=O)c1ccc(Nc2nc3ccccc3n3cccc23)cc1`, the TGI in [1], in test [2], in test [3], in test [4], in test [5] and in test [6] was over 100 µM in each case. Besides, the TGI in [7], in test [8], in [9], in test [10], in test [11] and in test [12] was over 100 µM in each case. Further, the TGI in test [13] is 49.7 µM; in test [14] it was over 100 µM; in [15], over 100 µM; in test [16], over 100 µM; in [17], 39.4 µM; in test [18], over 100 µM. Besides, the TGI in [19] and in test [20] was over 100 µM each time.

With `Fc1ccccc1-c1cc(=S)c2cc3c(cc2[nH]1)OCO3`, the TGI in test [1] is over 100 µM; in test [2] it was over 100 µM; in [3], 40.2 µM; in test [4], over 100 µM; in test [5], over 23.6 µM; in [6], over 100 µM. For the same molecule, the TGI is 57 µM in test [7]; 63.2 µM in test [8]; over 100 µM in [9]; over 100 µM in test [10]; over 80.2 µM in test [11]; over 70 µM in test [12]. Also, the TGI in test [13] was over 100 µM; in test [14], over 100 µM; in [15] it was over 89 µM; in test [16] it was over 30.7 µM; in test [17] it was over 100 µM; in test [18], 98.1 µM. Moreover, the results for the TGI in [19] and in [20] were over 100 µM and over 30 µM, respectively.
